Four compounds from patent US9751885B2, “Cyclopropanamine compound and use thereof” (Takeda Pharmaceutical Company Limited, priority 2012, dated 2017) can be followed below.

Counter-ions that a name gives are not always drawn. Like-named read-outs stand apart in the source and are kept apart here.

Series [1] can be described thus: Evaluation of hippocampal distribution in mouse. The format is in vivo. Conditions: male ICR mice, 10 mg/kg oral; for concentration at 0.5 h: 0.5 hr after administration; for concentration at 1 h: 1 hr after administration. Put shortly:
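Male ICR mice dosed orally at 10 mg/kg as suspension in 0.5% methylcellulose/0.02% citric acid/water. Plasma and hippocampus sampled together at 0.5, 1 or 1.5 h; LC/MS/MS concentrations gave hippocampus/plasma ratio.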

For series [2], the system named is white blood cell number, red blood cell number, platelet number. Description: Evaluation of blood cell number in mouse. The series is classed as in vivo. Conditions: oral, Day 2 after administration. The method in brief: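 Male ICR mice dosed orally at 1, 10, 50 or 100 mg/kg (suspension in 0.5% methylcellulose/0.02% citric acid/water); whole blood collected on Day 2. White cell, red cell and platelet counts per unit volume by automated haematology analyser, expressed as % of mean of untreated control group.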

Series [3] deals with Gad1 H3K4me2 level in rat primary culture neurons. Description: Gad1 H3K4 methylation induction activity in rat primary culture neurons (ChIP-qPCR). The format is cell-based. Conditions: Rattus norvegicus, Neuron, 72 h, control without compound = 100%; for activity at 1 µM: read-out: Gad1 H3K4me2 induction activity (%), compound 1 μM, 3 days, rat primary culture neurons; for activity at 10 µM: read-out: Gad1 H3K4me2 induction activity (%), compound 10 μM, 3 days, rat primary culture neurons. As for the experimental part: Gad1 H3K4 Methylation Induction Activity in Rat Primary Culture Neurons
Thereafter, the compound was added to final concentrations of 1 or 10 μM, and the cells were further cultured for 3 days. The culture supernatant was aspirated, ice-cold PBS was added, and the cell suspension was collected on ice using CELL SCRAPER (IWAKI). […] (750 μL). Furthermore, 0.3% NP40/cell lysis buffer 1 (750 μL) was added, and the cells were lysed by incubating for 5 min on ice.
Using the DNA obtained by the chromatin immunoprecipitation as a template, quantitative PCR of the Gad1 gene upstream genomic region was performed, and the measurement value was taken as the Gad1 H3K4me2 level. […] The Gad1 H3K4me2 induction by the compound was expressed by the H3K4me2 level when the compound was added, as compared to the H3K4me2 level of the control (without addition of the compound) as 100%.
(In general: In qPCR the cycle at which signal appears reflects the starting amount.)

Where [4] appears, read: hippocampus, read-out: hippocampus concentration (mean).
Setting [5] is: plasma, read-out: plasma concentration (mean).

In the case of `O=C(NC1CCOCC1)c1cccc([C@@H]2C[C@H]2NC2CCC2)c1` (relative stereo) [Example 179, 3-(trans-2-(cyclobutylamino)cyclopropyl)-N-(tetrahydro-2H-pyran-4-yl)benzamide hydrochloride], the concentration at 0.5 h in series [1] (setting [4]) came out at 321 ng/g. Besides, in series [1] (setting [5]), the concentration at 0.5 h stood at 421 ng/mL. Besides, in series [2] (10 mg/kg), the “platelet number, percentage of compound administration group compared to control group, mean” value (shortened to “platelet number, percentage”) worked out at 94.8%; the “red blood cell number, percentage of compound administration group compared to control group, mean” value (“red blood cell number, percentage” for short) is recorded as 102.5%; the “white blood cell number, percentage of compound administration group compared to control group, mean” value (from here on “white blood cell number, percentage”) worked out at 94.2%. Also, in series [2] (100 mg/kg), the “platelet number, percentage” value came out at 92.5%; the “red blood cell number, percentage” value worked out at 100.4%; the “white blood cell number, percentage” value was found to be 121.2%. Moreover, in series [3], the activity at 1 µM stood at 175% and the activity at 10 µM was 123%.

As to `O=C(NC1CC(F)(F)C1)c1cccc([C@@H]2C[C@H]2NCC2CC2)c1` (relative stereo) [Example 99, 3-(trans-2-((cyclopropylmethyl)amino)cyclopropyl)-N-(3,3-difluorocyclobutyl)benzamide hydrochloride], the concentration at 1 h in series [1] (setting [4]) stood at 283 ng/g. Moreover, the concentration at 1 h in series [1] (setting [5]) was found to be 143 ng/mL. In series [2] (10 mg/kg), the “platelet number, percentage” value came out at 116.9%; the “red blood cell number, percentage” value is on record as 102.8%; the “white blood cell number, percentage” value was 66.0%. In addition, in series [2] (100 mg/kg), the “platelet number, percentage” value was 111.1%; the “red blood cell number, percentage” value is on record as 101.5%; the “white blood cell number, percentage” value is listed as 79.4%. For the same compound, in series [3], the activity at 1 µM was 174% and the activity at 10 µM is 181%.

`Cc1nnc(NC(=O)c2cc([C@@H]3C[C@H]3NCC3CC3)ccc2F)s1` (relative stereo) [Example 110, 5-(trans-2-((cyclopropylmethyl)amino)cyclopropyl)-2-fluoro-N-(5-methyl-1,3,4-thiadiazol-2-yl)benzamide dihydrochloride]: in series [1] (setting [4]), the concentration at 0.5 h came to 3300 ng/g. The concentration at 0.5 h in series [1] (setting [5]) is 4490 ng/mL. In series [2] (10 mg/kg), the “platelet number, percentage” value turned out to be 93.4%; the “red blood cell number, percentage” value was determined as 98.7%; the “white blood cell number, percentage” value amounted to 114.9%. Besides, in series [2] (100 mg/kg), the “platelet number, percentage” value was 96.4%; the “red blood cell number, percentage” value came out at 100.4%; the “white blood cell number, percentage” value was 112.0%. In series [3], the activity at 1 µM is 172% and the activity at 10 µM turned out to be 208%.

As for `Cc1cc(NC(=O)c2cccc([C@@H]3C[C@H]3NCC3CC3)c2)no1` (relative stereo) [Example 103, 3-(trans-2-((cyclopropylmethyl)amino)cyclopropyl)-N-(5-methyl-1,2-oxazol-3-yl)benzamide hydrochloride], the concentration at 1 h in series [1] (setting [4]) turned out to be 1030 ng/g. In addition, the concentration at 1 h in series [1] (setting [5]) came to 375 ng/mL. In addition, in series [2] (10 mg/kg), the “platelet number, percentage” value came to 88.7%; the “red blood cell number, percentage” value was determined as 95.0%; the “white blood cell number, percentage” value stood at 100.9%. In series [2] (100 mg/kg), the “platelet number, percentage” value amounted to 96.8%; the “red blood cell number, percentage” value amounted to 98.5%; the “white blood cell number, percentage” value is given as 105.9%. Moreover, in series [3], the activity at 1 µM was found to be 139% and the activity at 10 µM is 134%.
